EC50 data for 30 compounds are collected here from patent publication US9765087B2, “Benzimidazole derivatives” (ENANTA PHARMACEUTICALS, INC., priority 2009, dated 2017).

Some results are limits rather than exact numbers.

The test system of this assay is HCV 1b genotype replicon. Description: HCV replicon assay (qRT-PCR or luciferase), genotype 1b. Type of assay: cell-based. Conditions: Hepatitis C virus, Table 11, qRT-PCR or luciferase assay, read-out: Genotype-1b replicon EC50 Range. An excerpt: HCV replicon cell lines (kindly provided by R. Bartenschlager) isolated from colonies as described by Lohman et. al. (Lohman et al. (1999) Science 285: 110-113, expressly incorporated by reference in its entirety) and used for all experiments. The HCV replicon has the nucleic acid sequence set forth in EMBL Accession No.: AJ242651, the coding sequence of which is from nucleotides 1801 to 8406.
The coding sequence of the published HCV replicon was synthesized and subsequently assembled in a modified plasmid pBR322 (Promega, Madison, Wis.) using standard molecular biology techniques. One replicon cell line (“SGR 11-7”) stably expresses HCV replicon RNA which consists of (i) the HCV 5′UTR fused to the first 12 amino acids of the capsid protein, (ii) the neomycin phosphotransferase gene (neo), (iii) the IRES from encephalomyocarditis virus (EMCV), and (iv) HCV […] to NSSB genes and the HCV 3′UTR. Another replicon cell line (“Huh-luc/neo-ET”) described by Vrolijk et. al. (Vrolijk et. al. (2003) Journal of Virological Methods 110:201-209, expressly incorporated by reference in its entirety) stably expresses HCV replicon RNA which consists of (i) the HCV 5′UTR fused to the first 12 amino acids of the capsid protein, (ii) the firefly luciferase reporter gene, (iii) the ubiquitin gene, (iv) the neomycin phosphotransferase gene (neo), (v) the IRES from encephalomyocarditis virus (EMCV), and (vi) HCV NS3 to NS5B genes that harbor cell culture adaptive mutations (E1202G, T1280I, K1846T) and the HCV 3′UTR.
These cell lines were maintained at 37° C., 5% CO2, 100% relative humidity in DMEM (Cat#11965-084, Invitrogen), with 10% fetal calf serum (“FCS”, Invitrogen), 1% non-essential amino acids (Invitrogen), 1% of Glutamax (Invitrogen), 1% of 100× penicillin/streptomycin (Cat#15140-122, Invitrogen) and Geneticin (Cat#10131-027, Invitrogen) at 0.75 mg/ml or 0.5 mg/ml for 11-7 and Huh-luc/neo-ET cells, respectively.
EC50 values of single agent compounds and combinations were determined by HCV RNA detection using quantitative RT-PCR, according to the manufacturer's instructions, with a TAQMAN® One-Step RT-PCR Master Mix Reagents Kit (Cat#AB 4309169, Applied Biosystems) on an ABI Model 7500 thermocycler. The TaqMan primers used for detecting and quantifying HCV RNA were obtained from Integrated DNA Technologies. HCV RNA was normalized to GAPDH RNA levels in drug-treated cells, which is detected and quantified using the Human GAPDH Endogenous Control Mix (Applied Biosystems, AB 4310884E). Total cellular RNA is purified from 96-well plates using the RNAqueous 96 kit (Ambion, Cat# AM1812). Chemical agent cytotoxicity is evaluated using an MTS assay according to the manufacturer's directions (Promega).
Since clinical drug resistance often develops in viral infections following single agent therapies, there is a need to assess the additive, antagonistic, or synergistic properties of combination therapies. We used the HCV replicon system to assess the potential use of the compound of the present invention or in combination therapies with Interferon alpha, cyclosporine analogs and inhibitors targeting other HCV proteins. The acute effects of a single or combinations of drugs are studied in the “Huh-luc/neo-ET” replicon with each chemical agent titrated in an X or Y direction in a 6 point two-fold dilution curve centered around the EC50 of each drug. Briefly, replicon cells are seeded at 7,000 cells per well in 90 ul DMEM (without phenol red, Invitrogen Cat.#31053-036) per well with 10% FCS, 1% non-essential amino acids, 1% of Glutamax and 1% of 100× penicillin/streptomycin and incubated overnight at 37° C., 5% CO2, 100% relative humidity. […]

One may read the EC50 as the concentration needed to bring the measured effect to its halfway point. For the compound `COC(=O)N[C@@H](C(=O)N1CCC[C@H]1c1nc(-c2ccc(C#Cc3ccc4[nH]c([C@@H]5CCCN5C(=O)[C@H](NC(=O)OC)c5ccccc5)nc4c3)cc2)c[nH]1)c1ccccc1` [Example 2-1], the EC50 was under 1 nM.
In the case of `COC(=O)N[C@@H](C(=O)N1CCC[C@H]1c1ncc(-c2ccc(CCc3ccc4nc([C@@H]5CCCN5C(=O)[C@H](NC(=O)OC)c5ccccc5)[nH]c4c3)cc2)[nH]1)c1ccccc1` [Example 2-2], the 50% effective concentration (EC50) is under 1 nM.
For `COC(=O)N[C@@H](C(=O)N1CCC[C@H]1c1ncc(-c2ccc(-c3ccc4[nH]c([C@@H]5CCCN5C(=O)[C@H](NC(=O)OC)c5ccccc5)nc4c3)cc2)[nH]1)c1ccccc1` [Example 2], the concentration for a half-maximal effect (EC50) was under 1 nM.
For the compound `COC(=O)N[C@@H](C(=O)N1CCC[C@H]1c1nc(-c2ccc(/C=C/c3ccc4[nH]c([C@@H]5CCCN5C(=O)[C@H](NC(=O)OC)c5ccccc5)nc4c3)cc2)c[nH]1)c1ccccc1` [Example 357], the 50% effective concentration (EC50) is under 1 nM.
As for `COC(=O)N[C@@H](C(=O)N1CCC[C@H]1c1nc(-c2ccc(C#Cc3ccc4[nH]c([C@@H]5CCCN5C(=O)[C@H](NC(=O)OC)c5ccccc5)nc4c3)cc2)n[nH]1)c1ccccc1` [Example 442], the figure is under 1 nM; as for `COC(=O)N[C@@H](C(=O)N1CCC[C@H]1c1nc(-c2ccc(CCc3ccc4[nH]c([C@@H]5CCCN5C(=O)[C@H](NC(=O)OC)c5ccccc5)nc4c3)cc2)n[nH]1)c1ccccc1` [Example 443], under 1 nM.
With `COC(=O)N[C@@H](C(=O)N1CCC[C@H]1c1cc(-c2ccc(C#Cc3ccc4[nH]c([C@@H]5CCCN5C(=O)[C@H](NC(=O)OC)c5ccccc5)nc4c3)cc2)n[nH]1)c1ccccc1` [Example 445], the half-maximal effective concentration (EC50) was under 1 nM.
For the compound `COC(=O)N[C@@H](C(=O)N1CCC[C@H]1c1cc(-c2ccc(CCc3ccc4[nH]c([C@@H]5CCCN5C(=O)[C@H](NC(=O)OC)c5ccccc5)nc4c3)cc2)n[nH]1)c1ccccc1` [Example 446], the EC50 is under 1 nM.
For `COC(=O)N[C@H](C(=O)N1CCC[C@H]1c1ncc(-c2ccc(CCCc3ccc4[nH]c([C@@H]5CCCN5C(=O)[C@@H](NC(=O)OC)C(C)C)nc4c3)cc2)[nH]1)C(C)C` [Example 449], the EC50 is under 1 nM.
The result for `COC(=O)N[C@H](C(=O)N1CCC[C@H]1c1nc(-c2ccc(OCc3ccc4[nH]c([C@@H]5CCCN5C(=O)[C@@H](NC(=O)OC)C(C)C)nc4c3)cc2)c[nH]1)C(C)C` [Example 451] reads under 1 nM.
Consider `COC(=O)N[C@H](C(=O)N1CCC[C@H]1c1nc(-c2ccc(/C=C/c3ccc4[nH]c([C@@H]5CCCN5C(=O)[C@@H](NC(=O)OC)C(C)C)nc4c3)s2)c[nH]1)C(C)C` [Example 453], for which the EC50 is under 1 nM.
The result for `COC(=O)N[C@H](C(=O)N1CCC[C@H]1c1nc(-c2ccc(CCc3ccc4nc([C@@H]5CCCN5C(=O)[C@@H](NC(=O)OC)C(C)C)[nH]c4c3)s2)c[nH]1)C(C)C` [Example 454] reads under 1 nM.
With `COC(=O)N[C@H](C(=O)N1CCC[C@H]1c1nc(-c2ccc(CCCc3ccc4[nH]c([C@@H]5CCCN5C(=O)[C@@H](NC(=O)OC)C(C)C)nc4c3)s2)c[nH]1)C(C)C` [Example 457], the concentration for a half-maximal effect (EC50) is under 1 nM.
Turning to `COC(=O)N[C@H](C(=O)N1CCC[C@H]1c1nc(-c2ccc3cc(-c4ccc5[nH]c([C@@H]6CCCN6C(=O)[C@@H](NC(=O)OC)C(C)C)nc5c4)ccc3c2)c[nH]1)C(C)C` [Example 459], the concentration giving a half-maximal response (EC50) was under 1 nM.
`COC(=O)N[C@H](C(=O)N1CCC[C@H]1c1nc(-c2ccc3cc(-c4ccc5[nH]c([C@@H]6CCCN6C(=O)[C@@H](NC(=O)OC)[C@@H](C)OC)nc5c4)ccc3c2)c[nH]1)[C@@H](C)OC` [Example 460]: the EC50 is under 1 nM.
With `COC(=O)N[C@H](C(=O)N1CCC[C@H]1c1nc(-c2ccc3cc(-c4ccc5[nH]c([C@@H]6CCCN6C(=O)[C@H](NC(=O)OC)c6ccccc6)nc5c4)ccc3c2)c[nH]1)[C@@H](C)OC` [Example 463], the EC50 was under 1 nM.
In the case of `COC(=O)N[C@H](C(=O)N1CCC[C@H]1c1nc2cc(-c3ccc4cc(-c5c[nH]c([C@@H]6CCCN6C(=O)[C@@H](NC(=O)OC)[C@@H](C)OC)n5)ccc4c3)ccc2[nH]1)C(C)C` [Example 464], the EC50 is under 1 nM.
As to `COC(=O)N[C@H](C(=O)N1CCC[C@H]1c1nc2cc(-c3ccc4cc(-c5c[nH]c([C@@H]6CCCN6C(=O)[C@@H](NC(=O)OC)[C@@H](C)OC)n5)ccc4c3)ccc2[nH]1)[C@@H](C)O` [Example 465], the EC50 is under 1 nM.
As for `CC[C@H](C)[C@H](NC(=O)OC)C(=O)N1CCC[C@H]1c1nc2cc(-c3ccc4cc(-c5c[nH]c([C@@H]6CCCN6C(=O)[C@@H](NC(=O)OC)[C@@H](C)OC)n5)ccc4c3)ccc2[nH]1` [Example 466], the figure is under 1 nM.
Regarding `COC(=O)N[C@H](C(=O)N1CCC[C@H]1c1nc(C#Cc2ccc(-c3ccc4[nH]c([C@@H]5CCCN5C(=O)[C@@H](NC(=O)OC)C(C)C)nc4c3)cc2)c[nH]1)C(C)C` [Example 468], the 50% effective concentration (EC50) was under 1 nM.
For the compound `COC(=O)N[C@H](C(=O)N1CCC[C@H]1c1nc(CCc2ccc(-c3ccc4[nH]c([C@@H]5CCCN5C(=O)[C@@H](NC(=O)OC)C(C)C)nc4c3)cc2)c[nH]1)C(C)C` [Example 469], the half-maximal effective concentration (EC50) was under 1 nM.
Regarding `COC(=O)N[C@H](C(=O)N1CCC[C@H]1c1nc(C#Cc2ccc3cc(-c4ccc5[nH]c([C@@H]6CCCN6C(=O)[C@@H](NC(=O)OC)C(C)C)nc5c4)ccc3c2)c[nH]1)C(C)C` [Example 471], the concentration for a half-maximal effect (EC50) was under 1 nM.
Turning to `COC(=O)N[C@H](C(=O)N1CCC[C@H]1c1nc(CCc2ccc3cc(-c4ccc5[nH]c([C@@H]6CCCN6C(=O)[C@@H](NC(=O)OC)C(C)C)nc5c4)ccc3c2)c[nH]1)C(C)C` [Example 472], the EC50 was under 1 nM.
Turning to `COC(=O)N[C@H](C(=O)N1CCC[C@H]1c1nc(-c2ccc(C#Cc3ccc4[nH]c([C@@H]5CCCN5C(=O)[C@@H](NC(=O)OC)[C@@H](C)OC)nc4c3)cc2)c[nH]1)[C@@H](C)OC` [Example 473], the EC50 is under 1 nM.
As for `COC(=O)N[C@H](C(=O)N1CCC[C@H]1c1nc(-c2ccc3cc(C#Cc4ccc5[nH]c([C@@H]6CCCN6C(=O)[C@@H](NC(=O)OC)C(C)C)nc5c4)ccc3c2)c[nH]1)C(C)C` [Example 475], the figure is under 1 nM; as for `COC(=O)N[C@H](C(=O)N1CCC[C@H]1c1nc(-c2ccc3cc(/C=C/c4ccc5[nH]c([C@@H]6CCCN6C(=O)[C@@H](NC(=O)OC)C(C)C)nc5c4)ccc3c2)c[nH]1)C(C)C` [Example 477], under 1 nM.
As for `COC(=O)N[C@H](C(=O)NCc1nc(-c2ccc(C#Cc3ccc4[nH]c([C@@H]5CCCN5C(=O)[C@@H](NC(=O)OC)C(C)C)nc4c3)cc2)c[nH]1)C(C)C` [Example 479], the figure is under 1 nM; as for `COC(=O)N[C@H](C(=O)N1CCC[C@H]1c1nc(-c2ccc(C#Cc3ccc4[nH]c([C@@H]5CCCN5C(=O)[C@@H](OC(=O)OC)C(C)C)nc4c3)cc2)c[nH]1)C(C)C` [Example 480], under 1 nM; as for `CCOC(=O)N[C@H](C(=O)N1CCC[C@H]1c1nc2cc(C#Cc3ccc(-c4c[nH]c([C@@H]5CCCN5C(=O)[C@@H](NC(=O)OC)C(C)C)n4)cc3)ccc2[nH]1)C(C)C` [Example 481], under 1 nM.
For the compound `COC(=O)N[C@H](C(=O)N1CCC[C@H]1c1nc(-c2ccc(C#Cc3cc(F)c4[nH]c([C@@H]5CCCN5C(=O)[C@@H](NC(=O)OC)C(C)C)nc4c3)cc2)c[nH]1)C(C)C` [Example 483], the EC50 was under 1 nM.
